Data taken from patent US8735414B2 (priority 2009, dated 2014).

Experiments:
[1] = system: bicistronic HCV replicon (replicon RNA, GenBank Accession No. AJ242654); assay: HCV Replicon Assay; type: cell-based; conditions: Hepatitis C virus, 72 h, read-out: Replicon IC50

SMILES | IC50 [1] | melting point
C[C@@H](NS(=O)(=O)c1ccc(-c2c(C#N)c3ccc(Cl)cc3n2C2CCC2)nc1)C(F)(F)F [compound 222, 6-(6-chloro-3-cyano-1-cyclobutyl-1H-indol-2-yl)-N-[(2R)-1,1,1-trifluoropropan-2-yl]pyridine-3-sulfonamide] | < 500 nM | 202 to 206 °C
Cc1ccc2c(C#N)c(-c3ncc(S(=O)(=O)N[C@@H](C)C(F)(F)F)cn3)n(C3CCCC3)c2c1 [compound 404, 2-(3-cyano-1-cyclopentyl-6-methyl-1H-indol-2-yl)-N-[(2S)-1,1,1-trifluoropropan-2-yl]pyrimidine-5-sulfonamide] | < 500 nM | 223 to 224 °C
C[C@H](NS(=O)(=O)c1cnc(-c2c(C#N)c3ccc(F)cc3n2C2CCC2)nc1)C(F)(F)F [compound 494, 2-(3-cyano-1-cyclobutyl-6-fluoro-1H-indol-2-yl)-N-[(2S)-1,1,1-trifluoropropan-2-yl]pyrimidine-5-sulfonamide] | 2000 to 5000 nM | 223 to 225 °C
CC(C)(C)S(=O)(=O)Nc1ccc(-c2c(C#N)c3ccc(OC(F)F)cc3n2C2CCC2)cn1 [compound 295, N-{5-[3-cyano-1-cyclobutyl-6-(difluoromethoxy)-1H-indol-2-yl]pyridin-2-yl}-2-methylpropane-2-sulfonamide] | 2000 to 5000 nM | 239 to 240 °C
CCc1cc2c(cc1F)c(C(N)=O)c(-c1ccc(S(=O)(=O)N[C@@H](C)C(F)(F)F)cn1)n2-c1ccc(C(F)(F)F)cc1 [compound 1022, 6-ethyl-5-fluoro-1-[4-(trifluoromethyl)phenyl]-2-(5-{[(2S)-1,1,1-trifluoropropan-2-yl]sulfamoyl}pyridin-2-yl)-1H-indole-3-carboxamide] | < 500 nM | 253 to 259 °C
CCc1cc2c(cc1F)c(C#N)c(-c1ccc(S(=O)(=O)N[C@@H](C)C(F)(F)F)cn1)n2-c1ccc(OC)cc1 [compound 1005, 6-[3-cyano-6-ethyl-5-fluoro-1-(4-methoxyphenyl)-1H-indol-2-yl]-N-[(2S)-1,1,1-trifluoropropan-2-yl]pyridine-3-sulfonamide] | < 500 nM | 261 to 266 °C
C[C@H](NS(=O)(=O)c1ccc(-c2c(C#N)c3cc(F)c(O)cc3n2C2CCCC2)nc1)C(F)(F)F [compound 576, 6-(3-cyano-1-cyclopentyl-5-fluoro-6-hydroxy-1H-indol-2-yl)-N-[(2S)-1,1,1-trifluoropropan-2-yl]pyridine-3-sulfonamide] | < 500 nM | 214 to 216 °C
CC(C)NS(=O)(=O)c1cnc(-c2c(C#N)c3ccc(F)cc3n2CC2CC2)nc1 [compound 139, 2-[3-cyano-1-(cyclopropylmethyl)-6-fluoro-1H-indol-2-yl]-N-(propan-2-yl)pyrimidine-5-sulfonamide] | 500 to 2000 nM | 218 to 219 °C
Cc1cc2c(cc1F)c(C(N)=O)c(-c1ccc(S(=O)(=O)NC(C)(C)C(F)(F)F)cn1)n2C1CCOCC1 [compound 768, 5-fluoro-6-methyl-1-(tetrahydro-2H-pyran-4-yl)-2-{5-[(1,1,1-trifluoro-2-methylpropan-2-yl)sulfamoyl]pyridin-2-yl}-1H-indole-3-carboxamide] | < 500 nM | 200 to 206 °C
CCc1cc2c(cc1F)c(C(N)=O)c(-c1ccc(S(=O)(=O)N[C@@H](C)C(F)(F)F)cn1)n2-c1ccnc(C)n1 [compound 982, 6-ethyl-5-fluoro-1-(2-methylpyrimidin-4-yl)-2-(5-{[(2S)-1,1,1-trifluoropropan-2-yl]sulfamoyl}pyridin-2-yl)-1H-indole-3-carboxamide] | 2000 to 5000 nM | 115 to 120 °C
C[C@H](NS(=O)(=O)c1cnc(-c2c(C#N)c3cc(F)ccc3n2-c2ccccn2)nc1)C(F)(F)F [compound 474, 2-[3-cyano-5-fluoro-1-(pyridin-2-yl)-1H-indol-2-yl]-N-[(2S)-1,1,1-trifluoropropan-2-yl]pyrimidine-5-sulfonamide] | < 500 nM | 209 to 210 °C
